These molecules were tested on Allergic Conjunctivitis Model (assay: Alleviating action for allergic conjunctivitis model (Itch-Scratch response after OA challenge)). Conditions: OA-sensitized Wistar rats; positive control 0.3 w/v % suspension in physiological saline dropped into the eyes 10 minutes before OA challenge; scratching counted over 20 minutes after OA.
Assay type: in vivo
Method: or the experiment, Wistar rats (CLEA Japan) were used. The rats were sensitized by intraperitoneal administration of ovalbumin (OA, made by Sigma) in an amount of 100 μg and 10 mg of aluminum hydroxide (Alum, made by Pierce Co.) suspended in 1 mL of physiological saline. Allergic conjunctivitis was induced using rats after 3 weeks from the date of sensitization by dropping into the eyes of 10 μg OA solution prepared by physiological saline to a concentration of 30 mg/mL. The medicine was suspended at a concentration of 1.0 w/v % in physiological saline and dropped into the eyes 10 minutes before OA challenge to induce conjunctivitis (as a positive control drug, diphenhydramine suspended in a concentration of 0.3 w/v % in physiological saline was dropped in the eyes 10 minutes before OA challenge to induce conjunctivitis). For the effect of the compound, the number of times of the action of using the hind legs to scratch the eye area (Itch-Scratch response; considered to be an indicator of itchiness) observed in the 20-minute period after dropping the OA was counted and used to find the rate of inhibition of itchiness by the following formula: Control group: presensitized rats in whose eyes physiological saline is dropped 10 minutes before using OA to induce conjunctivitis Untreated group: unsensitized rats in whose eyes physiological saline is dropped. Calculation Formula: Inhibition rate(%)=100−(test substance group−untreated group/(control group−untreated group)×100

Row | Structure (SMILES) | Inhibition rate (%) of Itch-Scratch response [%]
1 | CN(C)CCOC(c1ccccc1)c1ccccc1 [Diphenhydramine, diphenhydramine, reference compound] | 64.6

Same assay, conditions: OA-sensitized Wistar rats; test substance 1.0 w/v % suspension in physiological saline dropped into the eyes 10 minutes before OA challenge; scratching counted over 20 minutes after OA

Row | Structure (SMILES) | Inhibition rate (%) of Itch-Scratch response [%]
2 | COc1ccc(NC2=C(C)C(=O)CC2)cc1O[C@@H]1C[C@H]2CC[C@@H]1C2 (racemic) [Compound 2, 3-[3-[(1RS,2RS,4SR)-bicyclo[2.2.1]hept-2-yloxy]-4-methoxyanilino]-2-methyl-2-cyclopenten-1-one] | 62.9
3 | CCC1=C(Nc2ccc(OC)c(O[C@@H]3C[C@H]4CC[C@@H]3C4)c2)CCC1=O (racemic) [Compound 3, 3-[3-[(1RS,2RS,4SR)-bicyclo[2.2.1]hept-2-yloxy]-4-methoxyanilino]-2-ethyl-2-cyclopenten-1-one] | 63.5
4 | COc1ccc(N(Cc2ccc3ccccc3c2)C2=CC(=O)CC2)cc1OC1CCCC1 [Compound 1, 3-[3-cyclopentyloxy-4-methoxy-N-(2-naphthylmethyl)anilino]-2-cyclopenten-1-one] | 82.7
5 | COc1ccc(NC2=C(C)C(=O)CC2)cc1O[C@@H]1C[C@H]2CC[C@@H]1C2 [Compound 4, (−)-3-[3-[(1R,2R,4S)-bicyclo[2.2.1]hept-2-yloxy]-4-methoxyanilino]-2-methyl-2-cyclopenten-1-one] | 68.6
6 | COc1ccc(NC2=C(C)C(=O)CC2)cc1O[C@H]1C[C@@H]2CC[C@H]1C2 [Compound 5, (+)-3-[3-[(1S,2S,4R)-bicyclo[2.2.1]hept-2-yloxy]-4-methoxyanilino]-2-methyl-2-cyclopenten-1-one] | 97.1
